Data reported in patent US10815196B2, “(S)-CSA salt of S-ketamine, (R)-CSA salt of S-ketamine and processes for the preparation of S-ketamine” (Janssen Pharmaceutica NV, priority 2015, dated 2020).

Experiments:
Format in all cases: physicochemical
[1] = Solubility in select solvents after 24 hours, filtrate analyzed by HPLC
Procedure: Additionally, the solubility of the monohydrate crystalline form of the (S)-CSA salt of S-ketamine in select solvents was determined as follows: 21 g of (S)-CSA salt of S- ketamine was dissolved in 100 mL of solvent (as listed in Table 5 below). After 24 hours, the solutions were analyzed visually. If the compound was completely dissolved, solubility was above 20 g/100 mL. If the compound was not completely dissolved, any remaining precipitate was filtered off, the filtrate was diluted 400-fold with HPLC dilution solvent (or acetonitrile/HPLC dilution solvent) and analyzed by HPLC, with results as listed in Table 5, below.

[2] = Approximate solubility by stepwise dilution of a suspension; conditions: thermodynamic from solid
Procedure: The approximate solubility of the monohydrate crystalline form of the (S)-CSA salt of S-ketamine was measured by stepwise dilution of a suspension of about 10 mg of the sample in 0.05 mL solvent. Table 4 below lists the approximate solubility, denoted “S”. If a sample was not dissolved by addition of a total of 10-12 mL of solvent, the solubility is indicated as <1 mg/mL in the Table 4, below.

[3] = Dynamic Vapor Sorption (DVS) measurement
Procedure: Dynamic Vapor Sorption (DVS) measurements (where completed) were measured using a Projekt Messtechnik Sorptions Prufsystem SPS 11 or Surface Measurement Systems DVS-1 scanning (cycling relative humidity and hodling the sample at a set relative humidity) as follow: (a) holding sample at 50% RH for 2 hours; (b) 50% RH to 0% RH (5%/h); holding at 0% RH for 5 hours; (c) 0% RH to 95% RH (5%/h); holding at 95% RH for 5 hours; and (d) 95% RH to 50% RH (5%/h); holding at 50% RH for 2 hours.

TG-FTIR measurement = conditions: 25° C. to 300° C., 10K/min, nitrogen
Procedure: ThermoGravimetric-Fourier Transform InfraRed (TG-FTIR) measurements, where carried out were measures using a Netzsche Thermo-Microbalance TG209 with Bruker FT-IR Spectrometer Vector 22, with aluminum crucible with microhoel, nitrogen atmosphere and scanning form 25° C. to 300° C. at a heating rate of 10K/min.

[4] = Storage of amorphous anhydrous form at ambient conditions
Procedure: . The amorphous anhydrous form of (S)-CSA salt of S-ketamine was also obtained (in a mixture with the monohdrate form) by slurrying the crystalline monohydrate form of (S)-CSA salt of S-ketamine in 2-methyl THF or isopropyl acetate at about 80° C. for about 4 days.

CN[C@]1(c2ccccc2Cl)CCCCC1=O [(S)-2-(2-chlorophenyl)-2-(methylammonium)cyclohexanone(+)-camphorsulfonate monohydrate]
Solubility at 23.6° C. ([1]; solvent: 2-propanol): 7.275 g/100 mL
Solubility at 23.6° C. ([1]; solvent: N,N-dimethylacetamide): 18.200 g/100 mL
Solubility at 23.6° C. ([1]; solvent: N,N-dimethylformamide): 18.267 g/100 mL
Solubility at 23.6° C. ([1]; solvent: acetic acid): 18.209 g/100 mL
Solubility at 23.6° C. ([1]; solvent: acetone (2-propanone)): 0.578 g/100 mL
Solubility at 23.6° C. ([1]; solvent: dichloromethane/methanol (50/50 v/v)): 18.589 g/100 mL
Solubility at 23.6° C. ([1]; solvent: ethanol): 18.297 g/100 mL
Solubility at 23.6° C. ([1]; solvent: methanol): 18.457 g/100 mL
solubility thermodynamic at 24 h ([1]; thermodynamic from solid, solvent: demineralized water, 23.6° C.): 53.4 mg/mL
solubility ([2]; 10:1 acetone:water, organic solvent or mixture, solvent: 10:1 aectobne:water): 20 to 24 mg/mL
solubility ([2]; aqueous with cosolvent or surfactant or cyclodextrin, solvent: 1:1 2-propanol:water): 93 to 189 mg/mL
solubility ([2]; aqueous with cosolvent or surfactant or cyclodextrin, solvent: 1:1 acetone:water): 58 to 77 mg/mL
solubility ([2]; organic solvent or mixture, solvent: 1,4-dioxane): 5 to 6 mg/mL
solubility ([2]; organic solvent or mixture, solvent: 1:1 2-propanol:isopropyl acetate): 10 to 11 mg/mL
solubility ([2]; organic solvent or mixture, solvent: 2-methyl THF saturated with water): 6 to 8 mg/mL
solubility ([2]; organic solvent or mixture, solvent: 2-methyl-THF): 5 to 7 mg/mL
solubility ([2]; organic solvent or mixture, solvent: 2-propanol): 22 to 25 mg/mL
solubility ([2]; organic solvent or mixture, solvent: 10:1 2-propanol:water): 24 to 28 mg/mL
solubility ([2]; organic solvent or mixture, solvent: DCM): 67 to 101 mg/mL
solubility ([2]; organic solvent or mixture, solvent: DMF): 91 to 185 mg/mL
solubility ([2]; organic solvent or mixture, solvent: DMSO): 106 to 212 mg/mL
solubility ([2]; organic solvent or mixture, solvent: TBME): < 1 mg/mL
solubility ([2]; organic solvent or mixture, solvent: THF): 5 to 7 mg/mL
solubility ([2]; organic solvent or mixture, solvent: acetone): 5 to 6 mg/mL
solubility ([2]; organic solvent or mixture, solvent: acetonitrile): 22 to 24 mg/mL
solubility ([2]; organic solvent or mixture, solvent: anisole): < 1 mg/mL
solubility ([2]; organic solvent or mixture, solvent: ethanol): 67 to 100 mg/mL
solubility ([2]; organic solvent or mixture, solvent: ethyl acetate): < 1 mg/mL
solubility ([2]; organic solvent or mixture, solvent: heptane): < 1 mg/mL
solubility ([2]; organic solvent or mixture, solvent: isopropyl acetate): < 1 mg/mL
solubility ([2]; organic solvent or mixture, solvent: methanol): > 226 mg/mL
solubility ([2]; organic solvent or mixture, solvent: toluene): < 1 mg/mL
solubility ([2]; solvent: water): 20 to 24 mg/mL
Hygroscopicity ([3]; cycling 0% RH to 95% RH): no hygroscopicity
Physical stability at elevated relative humidity ([3]; elevated relative humidity): physical stability
Chemical decomposition temperature (TG-FTIR measurement): above 230 °C

CC1(C)[C@@H]2CC[C@@]1(CS(=O)(=O)O)C(=O)C2.CN[C@]1(c2ccccc2Cl)CCCCC1=O
Hygroscopicity ([4]; amorphous, anhydrous form): hygroscopic
Form stability on storage ([4]; storage at ambient conditions): rapidly converts to the monohydrate form
